How the values were obtained:
[1] = Plasma protein binding by equilibrium dialysis, human plasma; format: in vitro ADME; details: pH 7.4, equilibrium dialysis 16 hr at 37° C., % Bound
Protocol: The plasma protein binding of compounds of invention is measured in human and rat plasma, respectively. A stock solution of the tested compound is prepared in 1 mg/mL in DMSO solution. The stock solution is spiked into the blank plasma to get a final compound concentration at 1 μg/mL for testing. Equilibrium dialysis (The equilibrium dialyzer-96TM MWCO 5K Daltons, Harvard Apparatus) method is used for the testing purpose.
The compound spiked plasma (at […]) and phosphate buffer (0.1 M, pH 7.4), 200 μl each, are added into the opposite sides of the membrane in a 96-well equilibrium dialyzer, respectively. The dialyzer plate is covered and incubated overnight (16 hr) at 37° C. in the 8-plate rotor incubator (Big Shot III 8-plate rotor, Harvard Apparatus). Aliquots (100 μL) are taken from the plasma and the buffer compartments, respectively. The matrix effects are eliminated by adding the same volume of blank plasma into the samples from buffer compartments and adding the same volume of phosphate buffer into the samples from plasma compartments. The samples are extracted by using the regular (3:1) protein precipitation extraction procedure (acetonitrile with internal standard). The supernatants are taken for LC/MS/MS analysis. The percentage of plasma-protein binding can be calculated by using the following method: % Free=[Free Drug/Total Drug]*100=[(Peak Area)buffer/(Peak Area)plasma]*100 % Bound=100−% Free.
For the purpose of Table 4, the plasma protein binding of each compound is expressed as follows: […]

P2X7 receptor = target: T1, P2X7 receptor (Homo sapiens, UniProt Q99572); assay: IL-1β release assay in differentiated THP-1 cells (Example 9); format: cell-based; details: THP-1 cells differentiated with LPS and IFN-γ; 30 min pretreatment; BzATP 250 uM; IL-1β by ELISA
T1 construct: host or cells: THP-1 cells differentiated with LPS and IFN-γ
T1 sequence (Q99572 1-595): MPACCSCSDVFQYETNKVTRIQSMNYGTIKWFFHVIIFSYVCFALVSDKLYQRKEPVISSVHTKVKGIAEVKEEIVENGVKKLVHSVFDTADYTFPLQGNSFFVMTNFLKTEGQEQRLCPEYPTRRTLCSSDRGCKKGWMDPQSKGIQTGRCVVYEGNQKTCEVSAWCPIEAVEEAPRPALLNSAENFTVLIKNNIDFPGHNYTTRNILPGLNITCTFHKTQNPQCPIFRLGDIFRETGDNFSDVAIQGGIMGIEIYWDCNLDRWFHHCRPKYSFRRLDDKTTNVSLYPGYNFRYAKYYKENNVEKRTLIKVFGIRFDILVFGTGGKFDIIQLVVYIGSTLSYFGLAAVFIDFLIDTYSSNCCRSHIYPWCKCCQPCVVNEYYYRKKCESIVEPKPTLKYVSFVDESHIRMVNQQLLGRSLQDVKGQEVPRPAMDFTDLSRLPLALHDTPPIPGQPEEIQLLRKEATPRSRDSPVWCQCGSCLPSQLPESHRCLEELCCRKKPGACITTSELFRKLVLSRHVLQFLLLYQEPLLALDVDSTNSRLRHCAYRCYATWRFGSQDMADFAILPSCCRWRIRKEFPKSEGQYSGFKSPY
Protocol: THP-1 cells (ATCC Cat #285-IF-100) are plated in 96 well plates at a concentration of 200,000 cells per well and allowed to differentiate in RPMI-1640 media (ATCC Cat #30-2001) containing 10% FBS, 100 IU/mL penicillin, 100 ug/mL streptomycin, 100 ng/mL LPS and 100 ng/mL IFN-γ for 16 hours. Following differentiation, the cells are treated for an additional 2 hours in RPMI-1640 media containing 100 IU/mL penicillin, 100 ug/mL streptomycin and fresh LPS at 100 ng/mL. The cells are then pretreated for 30 minutes with the compound of interest at the appropriate concentration in RPMI media containing 100 IU/mL penicillin, 100 ug/mL streptomycin. Following the pretreatment 2′,3′-O-(4-benzoylbenzoyl)-adenosine 5′-triphosphate (Sigma Aldrich Cat # B6396) is added to a final concentration of 250 uM, and the cells are incubated for an additional 45 minutes. 30 uL of cell supernatant is then collected and IL-1β levels are determined via ELISA (R&D systems Cat. # HSLB50) according to manufacturer's recommendations using a Tecan Safire plate reader. Background adjusted IL-1β levels of drug treated and non-treated cells are used to calculate the percent inhibition.
The following compounds have been or can be prepared according to the synthetic methods described herein for example, methods A-AA1. The compounds set forth in Table 1 were tested for activity in a cellular model as described herein. Specifically, cells were pretreated with differing amounts of the compound under test and released IL-1β determined as in Example 9, above. Measurements were made and IC50 values, presented in Table 1, below, were determined by fitting the data to a four parameter logistic equation using GraphPad Prism software (GraphPad Software, Inc). The equation may be expressed by the following formula: Y=Bottom+(Top−Bottom)/(1+10^((Log EC50−X)*HillSlope)) where X is the logarithm of concentration, Y is the response and Y starts at Bottom and goes to Top with a sigmoid shape.

[2] = Half-life in human liver microsomes (HLM); format: in vitro ADME; details: human liver microsomes 0.78 mg/mL, 1 μM compound, NADPH, 37° C.; for half-life at 1 μM: pH 7.4
Protocol: Half-Life in Human Liver Microsomes (HLM)
Test compounds (1 μM) are incubated with 3.3 mM MgCl2 and 0.78 mg/mL HLM (HL101) in 100 mM potassium phosphate buffer (pH 7.4) at 37° C. on the 96-deep well plate. The reaction mixture is split into two groups, a non-P450 and a P450 group. NADPH is only added to the reaction mixture of the P450 group. An aliquot of samples of P450 group is collected at 0, 10, 30, and 60 min time point, where 0 min time point indicated the time when NADPH is added into the reaction mixture of P450 group. […] Collected aliquots are extracted with acetonitrile solution containing an internal standard. […] The compound concentration in supernatant is measured by LC/MS/MS system.
The half-life value is obtained by plotting the natural logarithm of the peak area ratio of compounds/internal standard versus time. The slope of the line of best fit through the points yields the rate of metabolism (k). This is converted to a half-life value using following equations: Half-life=ln 2/k

## Cc1ccc2c(=O)n([C@H](C)CO)ccc2c1NC(=O)Cc1cccc(C(F)(F)F)c1F [Compound 23, 2-(2-Fluoro-3-trifluoromethyl-phenyl)-N-[2-((R)-2-hydroxy-1-methyl-ethyl)-6-methyl-1-oxo-1,2-dihydro-isoquinolin-5-yl]-acetamide]
[1]
  fraction unbound at 16 hr, 1 μg/mL: < 0.1
P2X7 receptor
  IC50: 11 nM
[2]
  half-life at 1 μM: 1.4 h

## Cc1ccc2c(=O)n([C@H](C)CO)ccc2c1NC(=O)Cc1ccc(C(F)(F)F)c(F)c1 [Compound 21, N-[6-Methyl-2-((R)-2-hydroxy-1-methyl-ethyl)-1-oxo-1,2-dihydro-isoquinolin-5-yl]-2-(3-fluoro-4-trifluoromethyl-phenyl)-acetamide]
[1]
  fraction unbound at 16 hr, 1 μg/mL: < 0.1
P2X7 receptor
  IC50: 0.4 nM
[2]
  Half Life: 1.5 h

## C[C@H](CO)n1ccc2c(C(=O)NCC3(O)CCC4(CC3)CC4)c(Cl)ccc2c1=O [Compound 63, 6-Chloro-2-((R)-1-hydroxypropan-2-yl)-N-((6-hydroxyspiro[2.5]octan-6-yl)methyl)-1-oxo-1,2-dihydroisoquinoline-5-carboxamide]
[1]
  fraction unbound at 16 hr, 1 μg/mL: 0.25 to 0.49
P2X7 receptor
  IC50: 0.6 nM

## Cc1ccc2c(=O)n([C@H](C)CN3CC(O)C3)ccc2c1NC(=O)Cc1ccc(C(F)(F)F)c(F)c1 [Compound 64, 2-(3-Fluoro-4-trifluoromethyl-phenyl)-N-{2-[(R)-2-(3-hydroxy-azetidin-1-yl)-1-methyl-ethyl]-6-methyl-1-oxo-1,2-dihydro-isoquinolin-5-yl}-acetamide]
[1]
  fraction unbound at 16 hr, 1 μg/mL: 0.1 to 0.24
P2X7 receptor
  IC50: 9 nM

## Cc1ccc2c(=O)n([C@H](C)CO)ccc2c1C(=O)NCc1ccc(C(F)(F)F)c(F)c1 [Compound 40, 2-((R)-2-Hydroxy-1-methyl-ethyl)-6-methyl-1-oxo-1,2-dihydro-isoquinoline-5-carboxylic acid 3-fluoro-4-trifluoromethyl-benzylamide]
[1]
  fraction unbound at 16 hr, 1 μg/mL: 0.1 to 0.24
P2X7 receptor
  IC50: 3 nM
[2]
  half-life at 1 μM: 2.6 h

## Cc1ccc2c(=O)n(CCO)ccc2c1NC(=O)Cc1ccc(C(F)(F)F)c(F)c1 [Compound 28, 2-(3-Fluoro-4-trifluoromethyl-phenyl)-N-[2-(2-hydroxy-ethyl)-6-methyl-1-oxo-1,2-dihydro-isoquinolin-5-yl]-acetamide]
[1]
  fraction unbound at 16 hr, 1 μg/mL: < 0.1
P2X7 receptor
  IC50: 9 nM
[2]
  Half Life: 3.7 h

## Cc1ccc2c(=O)n([C@H](C)CO)ccc2c1NC(=O)Cc1ccc(C(F)(F)F)cc1 [Compound 25, N-[2-((R)-2-Hydroxy-1-methyl-ethyl)-6-methyl-1-oxo-1,2-dihydro-isoquinolin-5-yl]-2-(4-trifluoromethyl-phenyl)-acetamide]
[1]
  fraction unbound at 16 hr, 1 μg/mL: 0.1 to 0.24
P2X7 receptor
  IC50: 6 nM
[2]
  half-life at 1 μM: 4.6 h

## Cc1ccc2c(=O)n([C@H](C)CO)ccc2c1NC(=O)Cc1ccc(F)c(C(F)(F)F)c1 [Compound 22, 2-(4-Fluoro-3-trifluoromethyl-phenyl)-N-[2-((R)-2-hydroxy-1-methyl-ethyl)-6-methyl-1-oxo-1,2-dihydro-isoquinolin-5-yl]-acetamide]
[1]
  fraction unbound at 16 hr, 1 μg/mL: < 0.1
P2X7 receptor
  IC50: 0.7 nM

## C[C@H](C(N)=O)n1ccc2c(NC(=O)Cc3ccc(C(F)(F)F)cc3)c(Cl)ccc2c1=O [Compound 3, (R)-2-{6-Chloro-1-oxo-5-[2-(4-trifluoromethyl-phenyl)-acetylamino]-1H-isoquinolin-2-yl}-propionamide]
P2X7 receptor
  IC50: 2 nM
[2]
  Half Life: 3.3 h

## C[C@H](CO)n1ccc2c(C(=O)NCc3ccc(C(F)(F)F)c(F)c3)c(Cl)ccc2c1=O [Compound 41, 6-Chloro-2-((R)-2-hydroxy-1-methyl-ethyl)-1-oxo-1,2-dihydro-isoquinoline-5-carboxylic acid 3-fluoro-4-trifluoromethyl-benzylamide]
[1]
  fraction unbound at 16 hr, 1 μg/mL: < 0.1
P2X7 receptor
  IC50: 7 nM
[2]
  half-life at 1 μM: 3 h

## C[C@H](CO)n1ccc2c(NC(=O)Cc3ccc(Cl)c(F)c3)c(Cl)ccc2c1=O [Compound 15, 2-(4-Chloro-3-fluoro-phenyl)-N-[6-chloro-2-((R)-2-hydroxy-1-methyl-ethyl)-1-oxo-1,2-dihydro-isoquinolin-5-yl]-acetamide]
P2X7 receptor
  IC50: 6 nM
[2]
  Half Life: 1.3 h

## C[C@H](CO)n1ccc2c(C(=O)NCC3(O)CCC(C)(C)CC3)c(Cl)ccc2c1=O [Compound 54, (R)-6-chloro-N-((1-hydroxy-4,4-dimethylcyclohexyl)methyl)-2-(1-hydroxypropan-2-yl)-1-oxo-1,2-dihydroisoquinoline-5-carboxamide]
P2X7 receptor
  IC50: 1 nM
[2]
  half-life at 1 μM: 0.3 h

## Cc1ccc2c(=O)n([C@H](C)CO)ccc2c1C(=O)NCc1cccc(C(F)(F)F)c1 [Compound 42, 2-((R)-2-Hydroxy-1-methyl-ethyl)-6-methyl-1-oxo-1,2-dihydro-isoquinoline-5-carboxylic acid 3-trifluoromethyl-benzylamide]
[1]
  fraction unbound at 16 hr, 1 μg/mL: < 0.1
P2X7 receptor
  IC50: 7 nM
[2]
  half-life at 1 μM: 0.8 h

## Cc1ccc2c(=O)n([C@H](C)CN3CC[C@@H](N)C3)ccc2c1NC(=O)Cc1ccc(C(F)(F)F)c(F)c1 [Compound 67]
[1]
  fraction unbound at 16 hr, 1 μg/mL: 0.1 to 0.24
P2X7 receptor
  IC50: 2 nM

## C[C@H](CO)n1ccc2c(C(=O)NCC3(O)CCC(C(F)(F)F)CC3)c(Cl)ccc2c1=O (stereo partly drawn) [Compound 56, 6-Chloro-2-((R)-2-hydroxy-1-methyl-ethyl)-1-oxo-1,2-dihydro-isoquinoline-5-carboxylic acid (1-hydroxy-4-trifluoromethyl-cyclohexylmethyl)-amide]
[1]
  fraction unbound at 16 hr, 1 μg/mL: 0.25 to 0.49
P2X7 receptor
  IC50: 9 nM
[2]
  half-life at 1 μM: 0.7 h

## C[C@H](CO)n1ccc2c(C(=O)NCC3(O)CCC(F)(F)CC3)c(Cl)ccc2c1=O [Compound 68]
[1]
  fraction unbound at 16 hr, 1 μg/mL: 0.25 to 0.49
P2X7 receptor
  IC50: 3 nM
[2]
  half-life at 1 μM: 0.65 h

## C[C@H](CO)n1ccc2c(C(=O)NCC3(O)CCC4(CC3)CC4(F)F)c(Cl)ccc2c1=O (stereo partly shown) [Compound 65]
[1]
  fraction unbound at 16 hr, 1 μg/mL: 0.25 to 0.49
P2X7 receptor
  IC50: 0.3 nM
[2]
  half-life at 1 μM: 0.62 h

## C[C@H](CO)n1ccc2c(NC(=O)Cc3ccc(F)c(C(F)(F)F)c3)c(Cl)ccc2c1=O [Compound 13, N-[6-Chloro-2-((R)-2-hydroxy-1-methyl-ethyl)-1-oxo-1,2-dihydro-isoquinolin-5-yl]-2-(4-fluoro-3-trifluoromethyl-phenyl)-acetamide]
[1]
  fraction unbound at 16 hr, 1 μg/mL: < 0.1
P2X7 receptor
  IC50: 0.4 nM
[2]
  Half Life: 1.0 h

## C[C@H](CO)n1ccc2c(C(=O)NCC3CCC(F)(F)CC3)c(Cl)ccc2c1=O [Compound 61, (R)-6-Chloro-N-((4,4-difluorocyclohexyl)methyl)-2-(1-hydroxypropan-2-yl)-1-oxo-1,2-dihydroisoquinoline-5-carboxamide]
[1]
  fraction unbound at 16 hr, 1 μg/mL: 0.1 to 0.24
P2X7 receptor
  IC50: 5 nM

From patent US8093265B2, “Bicycloheteroaryl compounds as P2X7 modulators and uses thereof” (Renovis, Inc., priority 2007, dated 2012)
